In this test the test system is E. coli ATCC 25922. Kind of test: LIVE/DEAD staining (SYTO 9 / propidium iodide). Conditions: E. coli ATCC 25922, tridecaptins at 1 × MIC, polymyxin 4 μg/mL (2 × MIC), 15 min, microscopy. In kind it is cell-based, Escherichia coli. How it is done:
This assay was performed according to a previously described procedure.[55],[56] Briefly, overnight cultures of E. coli ATCC 25922 and S. aureus ATCC 29213 were diluted to an OD600 of 0.2 in MHB and mixed with 1 × MIC of Oct-TriA1, Oct-TriA5, and Oct-TriD. Nisin and polymyxin B were used as positive controls at a concentration of 2-fold MIC. At the same time, green fluorescent nucleic acid stain SYTO 9 (excitation, 450–490 nm; emission, 500–550 nm) and red fluorescent nucleic acid stain propidium iodide (excitation, 574–599 nm; emission, 612–682 nm) (LIVE/DEAD Baclight Bacterial Viability Kit, Invitrogen) were added to the above cell suspensions. After mixing and incubating for 15 min in the dark at RT, cells were briefly sedimented via centrifugation and resuspended in fresh MHB. Then, the cell suspensions were loaded on 1.5% agarose pads and analyzed by a Zeiss Imager M2 microscope. Confocal images were obtained at 4 random locations for each sample and visualized using FIJI version 1.51H.[57]

This is an account of results in publication PMC11106739, “Discovery and Derivatization of Tridecaptin Antibiotics with Altered Host Specificity and Enhanced Bioactivity” (ACS Chemical Biology, 2024).

With polymyxin B, the “LIVE/DEAD staining, membrane integrity of E. coli cells” value is “death of half of the E. coli cells”.
